According to publication PMC5218480 (PLoS ONE, 2017):

Test system: MV-4-11 cells
Test: Gene expression microarray analysis (Affymetrix PrimeView) and GSEA
Type: cell-based, human
Design: RFU PODN (11730768_x_at) / Fold change /veh PODN (11730768_x_at) / RFU LINC00158 (11744669_a_at) / Fold change /veh LINC00158 (11744669_a_at) / RFU DUSP10 (11751237_a_at) / Fold change /veh DUSP10 (11751237_a_at) / RFU ID3 (11757404_x_at) / Fold change /veh ID3 (11757404_x_at) / RFU PLEKHG5 (11737974_s_at) / Fold change /veh PLEKHG5 (11737974_s_at) / RFU LRRC4B (11730491_at) / Fold change /veh LRRC4B (11730491_at) / RFU GIMAP4 (11747438_a_at) / Fold change /veh GIMAP4 (11747438_a_at) / RFU KRT8 (11758183_x_at) / Fold change /veh KRT8 (11758183_x_at) / RFU CNN1 (11734310_a_at) / Fold change /veh CNN1 (11734310_a_at) / RFU VPS37D (11726825_at) / Fold change /veh VPS37D (11726825_at) / RFU C10orf10 (11716522_x_at) / Fold change /veh C10orf10 (11716522_x_at) / RFU KIR2DL2 /// KIR2DL4 /// KIR2DL5A /// KIR2DL5B /// KIR2DS1 /// KIR2DS2 /// KIR2DS3 /// KIR2DS4 /// KIR3DL3 /// KIR3DL3 /// KIR3DS1 (11738374_at) / Fold change /veh KIR2DL2 /// KIR2DL4 /// KIR2DL5A /// KIR2DL5B /// KIR2DS1 /// KIR2DS2 /// KIR2DS3 /// KIR2DS4 /// KIR3DL3 /// KIR3DL3 /// KIR3DS1 (11738374_at) / RFU C1QL1 (11718748_at) / Fold change /veh C1QL1 (11718748_at) / RFU TMPRSS4 (11747572_a_at) / Fold change /veh TMPRSS4 (11747572_a_at) / RFU HAMP (11756126_x_at) / Fold change /veh HAMP (11756126_x_at) / RFU RNFT2 (11725882_a_at) / Fold change /veh RNFT2 (11725882_a_at) / RFU NR4A2 (11747474_a_at) / Fold change /veh NR4A2 (11747474_a_at) / RFU ABCC12 (11746883_a_at) / Fold change /veh ABCC12 (11746883_a_at) / RFU TMEM136 (11760407_x_at) / Fold change /veh TMEM136 (11760407_x_at) / RFU CLDN22 /// WWC2 (11732394_at) / Fold change /veh CLDN22 /// WWC2 (11732394_at) / RFU HLA-DPB1 (11760878_x_at) / Fold change /veh HLA-DPB1 (11760878_x_at) / RFU SPINT1 (11716480_a_at) / Fold change /veh SPINT1 (11716480_a_at) / RFU GAP43 (11754022_s_at) / Fold change /veh GAP43 (11754022_s_at) / RFU A4GNT (11735810_at) / Fold change /veh A4GNT (11735810_at) / RFU PRB3 (11715151_x_at) / Fold change /veh PRB3 (11715151_x_at) / RFU TUBB4B (11761932_at) / Fold change /veh TUBB4B (11761932_at) / RFU CAPN14 (11732068_a_at) / Fold change /veh CAPN14 (11732068_a_at) / RFU TMCC2 (11721928_a_at) / Fold change /veh TMCC2 (11721928_a_at) / RFU IRGQ (11745062_a_at) / Fold change /veh IRGQ (11745062_a_at) / RFU FAM174B (11720279_a_at) / Fold change /veh FAM174B (11720279_a_at) / RFU TMPRSS4 (11748680_a_at) / Fold change /veh TMPRSS4 (11748680_a_at) / RFU FAM212B (11763350_a_at) / Fold change /veh FAM212B (11763350_a_at) / RFU PLEKHG5 (11743358_a_at) / Fold change /veh PLEKHG5 (11743358_a_at) / RFU ZSCAN30 (11745921_a_at) / Fold change /veh ZSCAN30 (11745921_a_at) / RFU CMKLR1 (11741424_a_at) / Fold change /veh CMKLR1 (11741424_a_at) / RFU LOC101060620 /// MAPK8IP1 (11723275_at) / Fold change /veh LOC101060620 /// MAPK8IP1 (11723275_at) / RFU SPTSSB (11747773_x_at) / Fold change /veh SPTSSB (11747773_x_at) / RFU PRSS12 (11739890_at) / Fold change /veh PRSS12 (11739890_at) / RFU BIN1 (11741810_x_at) / Fold change /veh BIN1 (11741810_x_at) / RFU WNT11 (11732464_a_at) / Fold change /veh WNT11 (11732464_a_at) / RFU C10orf10 (11716521_a_at) / Fold change /veh C10orf10 (11716521_a_at) / RFU C5orf56 (11738089_at) / Fold change /veh C5orf56 (11738089_at) / RFU CYB561 (11721691_x_at) / Fold change /veh CYB561 (11721691_x_at) / RFU ANKRD19P (11752326_a_at) / Fold change /veh ANKRD19P (11752326_a_at) / RFU OR2T12 /// OR2T33 /// OR2T8 (11738714_s_at) / Fold change /veh OR2T12 /// OR2T33 /// OR2T8 (11738714_s_at) / RFU VCAN (11748164_a_at) / Fold change /veh VCAN (11748164_a_at) / RFU JSRP1 (11732532_at) / Fold change /veh JSRP1 (11732532_at) / RFU KRTAP10-11 (11738290_x_at) / Fold change /veh KRTAP10-11 (11738290_x_at) / RFU MYO3A (11730013_a_at) / Fold change /veh MYO3A (11730013_a_at) / RFU EBF3 (11725865_a_at) / Fold change /veh EBF3 (11725865_a_at) / RFU CAMK2N1 (11719241_x_at) / Fold change /veh CAMK2N1 (11719241_x_at) / RFU C5orf56 (11738088_a_at) / Fold change /veh C5orf56 (11738088_a_at) / RFU OLFML3 (11715873_a_at) / Fold change /veh OLFML3 (11715873_a_at) / RFU LOC100653217 /// NTM (11731650_a_at) / Fold change /veh LOC100653217 /// NTM (11731650_a_at) / RFU MAPK11 (11762145_a_at) / Fold change /veh MAPK11 (11762145_a_at) / RFU FIZ1 (11724087_x_at) / Fold change /veh FIZ1 (11724087_x_at) / RFU OASL (11726364_x_at) / Fold change /veh OASL (11726364_x_at) / RFU SOX15 (11748057_x_at) / Fold change /veh SOX15 (11748057_x_at) / RFU CD79A (11719716_a_at) / Fold change /veh CD79A (11719716_a_at) / RFU HIST1H1D (11736915_at) / Fold change /veh HIST1H1D (11736915_at) / RFU CASKIN2 (11723855_a_at) / Fold change /veh CASKIN2 (11723855_a_at) / RFU LOC730098 (11760151_x_at) / Fold change /veh LOC730098 (11760151_x_at) / RFU OR4N2 (11742367_at) / Fold change /veh OR4N2 (11742367_at) / RFU PRRT2 (11749266_a_at) / Fold change /veh PRRT2 (11749266_a_at) / RFU SNX32 (11753110_a_at) / Fold change /veh SNX32 (11753110_a_at) / RFU CDHR5 (11726645_a_at) / Fold change /veh CDHR5 (11726645_a_at) / RFU RCAN1 (11760418_a_at) / Fold change /veh RCAN1 (11760418_a_at) / RFU FAM167A (11723789_a_at) / Fold change /veh FAM167A (11723789_a_at) / RFU FAM26E (11764081_at) / Fold change /veh FAM26E (11764081_at) / RFU ISYNA1 (11749810_s_at) / Fold change /veh ISYNA1 (11749810_s_at) / RFU ACY1 (11761880_at) / Fold change /veh ACY1 (11761880_at) / RFU 11764098_at / Fold change /veh 11764098_at / RFU SAMD14 (11745864_x_at) / Fold change /veh SAMD14 (11745864_x_at) / RFU NPB (11741838_a_at) / Fold change /veh NPB (11741838_a_at) / RFU TMPRSS6 (11731388_a_at) / Fold change /veh TMPRSS6 (11731388_a_at) / RFU KRTAP10-2 (11738614_at) / Fold change /veh KRTAP10-2 (11738614_at) / RFU ARHGAP8 /// PRR5-ARHGAP8 (11727945_x_at) / Fold change /veh ARHGAP8 /// PRR5-ARHGAP8 (11727945_x_at) / RFU KRTAP5-7 /// NADSYN1 (11734609_at) / Fold change /veh KRTAP5-7 /// NADSYN1 (11734609_at) / RFU RASL12 (11751679_a_at) / Fold change /veh RASL12 (11751679_a_at) / RFU CDKN2B (11736163_a_at) / Fold change /veh CDKN2B (11736163_a_at) / RFU PRF1 (11729649_at) / Fold change /veh PRF1 (11729649_at) / RFU, ZNF638 /// ZNF638-IT1 / Fold change vs veh, ZNF638 /// ZNF638-IT1 / RFU, PANK3 / Fold change vs veh, PANK3 / RFU, SH3YL1 / Fold change vs veh, SH3YL1 / RFU, ZEB2 / Fold change vs veh, ZEB2 / RFU, NRIP1 / Fold change vs veh, NRIP1 / RFU, PTTG1IP / Fold change vs veh, PTTG1IP / RFU, CAPN2 / Fold change vs veh, CAPN2 / RFU, MED14 / Fold change vs veh, MED14 / RFU, SNORA58 / Fold change vs veh, SNORA58 / RFU, C1orf63 / Fold change vs veh, C1orf63 / RFU, LRRFIP1 / Fold change vs veh, LRRFIP1 / RFU, NDUFAF7 / Fold change vs veh, NDUFAF7 / RFU, SLC12A2 / Fold change vs veh, SLC12A2 / RFU, IBTK / Fold change vs veh, IBTK / RFU, ESF1 / Fold change vs veh, ESF1 / Fold change vs veh, TMEM50B / RFU, TAOK1 / Fold change vs veh, TAOK1 / RFU, ACBD3 / Fold change vs veh, ACBD3 / RFU, TMA16 / Fold change vs veh, TMA16 / RFU, RWDD3 / Fold change vs veh, RWDD3 / RFU, BCAT1 / Fold change vs veh, BCAT1 / RFU, EDEM3 / Fold change vs veh, EDEM3 / RFU, TMEM33 / Fold change vs veh, TMEM33 / RFU, WDR75 / Fold change vs veh, WDR75 / RFU, AHCTF1 / Fold change vs veh, AHCTF1 / RFU, TFRC / Fold change vs veh, TFRC / RFU, ZDHHC17 / Fold change vs veh, ZDHHC17 / RFU, NOM1 / Fold change vs veh, NOM1 / RFU, ARL8B / Fold change vs veh, ARL8B / RFU, ZBTB11 / Fold change vs veh, ZBTB11 / RFU, TAMM41 / Fold change vs veh, TAMM41 / RFU, KIAA1704 /// LOC100996395 / Fold change vs veh, KIAA1704 /// LOC100996395 / RFU, ING1 / Fold change vs veh, ING1 / RFU, TRMT61B / Fold change vs veh, TRMT61B / RFU, FUBP3 / Fold change vs veh, FUBP3 / RFU, TP53 / Fold change vs veh, TP53 / RFU, TNKS2 / Fold change vs veh, TNKS2 / RFU, ZFP14 / Fold change vs veh, ZFP14 / RFU, ACTR2 / Fold change vs veh, ACTR2 / RFU, PPP3R1 / Fold change vs veh, PPP3R1 / RFU, PIK3R1 / Fold change vs veh, PIK3R1 / RFU, HNRNPA1 / Fold change vs veh, HNRNPA1 / RFU, RNF170 / Fold change vs veh, RNF170 / RFU, ZNF28 / Fold change vs veh, ZNF28 / RFU, RNGTT / Fold change vs veh, RNGTT / RFU, OGT / Fold change vs veh, OGT / RFU, BRD1 / Fold change vs veh, BRD1 / RFU, MARS / Fold change vs veh, MARS / RFU, ZNF655 / Fold change vs veh, ZNF655 / RFU, FAHD1 / Fold change vs veh, FAHD1 / RFU, BDP1 / Fold change vs veh, BDP1 / RFU, LRRCC1 / Fold change vs veh, LRRCC1 / RFU, ARID1A / Fold change vs veh, ARID1A / RFU, ZNF146 / Fold change vs veh, ZNF146 / RFU, ZNF330 / Fold change vs veh, ZNF330 / RFU, GPN3 / Fold change vs veh, GPN3 / RFU, C9orf123 / Fold change vs veh, C9orf123 / RFU, N4BP2L2 / Fold change vs veh, N4BP2L2 / RFU, ARFIP1 / Fold change vs veh, ARFIP1 / RFU, FAM179B / Fold change vs veh, FAM179B / RFU, BCL10 / Fold change vs veh, BCL10 / RFU, UHRF1BP1L / Fold change vs veh, UHRF1BP1L / RFU, BET1 / Fold change vs veh, BET1 / RFU, CNOT2 / Fold change vs veh, CNOT2 / RFU, ZNF268 / Fold change vs veh, ZNF268 / Fold change vs veh, ZNF507 / RFU, DGCR2 / Fold change vs veh, DGCR2 / RFU, WDSUB1 / Fold change vs veh, WDSUB1 / Fold change vs veh, HSP90B1 /// MIR3652 / RFU, ADSS / Fold change vs veh, ADSS / RFU, GK / Fold change vs veh, GK / RFU, ZNF148 / Fold change vs veh, ZNF148 / RFU, TAF9 / Fold change vs veh, TAF9 / RFU, SLC1A5 / Fold change vs veh, SLC1A5 / RFU, SLMO2 / Fold change vs veh, SLMO2 / RFU, ABCC4 / Fold change vs veh, ABCC4 / RFU, LOC101060439 /// RAP1B / Fold change vs veh, LOC101060439 /// RAP1B / RFU, RFX7 / Fold change vs veh, RFX7 / RFU, GTPBP10 / Fold change vs veh, GTPBP10 / RFU, CNEP1R1 / Fold change vs veh, CNEP1R1 / RFU, BIVM-ERCC5 /// ERCC5 / Fold change vs veh, BIVM-ERCC5 /// ERCC5 / RFU, ILF3 / Fold change vs veh, ILF3 / RFU 11762660_at / Fold change /veh 11762660_at / RFU VCAN (11757783_s_at) / Fold change /veh VCAN (11757783_s_at) / RFU DDX43 (11728927_at) / Fold change /veh DDX43 (11728927_at) / RFU KRT8 (11758188_x_at) / Fold change /veh KRT8 (11758188_x_at) / RFU NKD1 (11759106_at) / Fold change /veh NKD1 (11759106_at) / RFU SRD5A1 (11742802_a_at) / Fold change /veh SRD5A1 (11742802_a_at) / RFU TPSAB1 /// TPSB2 (11721975_s_at) / Fold change /veh TPSAB1 /// TPSB2 (11721975_s_at) / RFU GSTM3 (11746129_a_at) / Fold change /veh GSTM3 (11746129_a_at) / RFU IL23R (11737362_x_at) / Fold change /veh IL23R (11737362_x_at) / RFU TMEM51 (11727254_a_at) / Fold change /veh TMEM51 (11727254_a_at) / RFU PIWIL2 (11732686_x_at) / Fold change /veh PIWIL2 (11732686_x_at) / RFU ORM1 (11744905_x_at) / Fold change /veh ORM1 (11744905_x_at) / RFU CCDC152 (11743942_at) / Fold change /veh CCDC152 (11743942_at) / RFU ECM1 (11717891_a_at) / Fold change /veh ECM1 (11717891_a_at) / RFU IL23R (11748794_a_at) / Fold change /veh IL23R (11748794_a_at) / RFU TNFAIP8L3 (11732012_x_at) / Fold change /veh TNFAIP8L3 (11732012_x_at) / RFU MBOAT4 (11741988_at) / Fold change /veh MBOAT4 (11741988_at) / RFU 11764193_at / Fold change /veh 11764193_at / RFU TMEM53 (11763286_at) / Fold change /veh TMEM53 (11763286_at) / RFU MAGEB2 (11727129_at) / Fold change /veh MAGEB2 (11727129_at) / RFU TMEM200A (11744735_a_at) / Fold change /veh TMEM200A (11744735_a_at) / RFU CCDC152 (11751479_a_at) / Fold change /veh CCDC152 (11751479_a_at) / RFU FAM211A (11726209_a_at) / Fold change /veh FAM211A (11726209_a_at) / RFU RGS16 (11746705_a_at) / Fold change /veh RGS16 (11746705_a_at) / RFU VCAN (11755009_s_at) / Fold change /veh VCAN (11755009_s_at) / RFU RHOB (11743442_s_at) / Fold change /veh RHOB (11743442_s_at) / RFU RGS16 (11720943_a_at) / Fold change /veh RGS16 (11720943_a_at) / RFU RGS16 (11720944_at) / Fold change /veh RGS16 (11720944_at) / RFU, VPS4B / Fold change vs veh, VPS4B / RFU, CREB1 / Fold change vs veh, CREB1 / RFU, DNAJC13 / Fold change vs veh, DNAJC13 / RFU, GNAQ / Fold change vs veh, GNAQ / RFU, CDK5R1 / Fold change vs veh, CDK5R1 / RFU, ZRANB3 / Fold change vs veh, ZRANB3 / RFU, CUL4A / Fold change vs veh, CUL4A / RFU, CCNY / Fold change vs veh, CCNY / RFU, UFL1 / Fold change vs veh, UFL1 / RFU, COG3 / Fold change vs veh, COG3 / RFU, DIAPH2 / Fold change vs veh, DIAPH2 / RFU, SKA2 / Fold change vs veh, SKA2 / RFU, AFF3 / Fold change vs veh, AFF3 / RFU, LMF1 / Fold change vs veh, LMF1 / RFU, IPO11 / Fold change vs veh, IPO11 / RFU, DFFB / Fold change vs veh, DFFB / RFU, FOXP1 / Fold change vs veh, FOXP1 / RFU, CARD8 / Fold change vs veh, CARD8 / RFU, STRN3 / Fold change vs veh, STRN3 / RFU, ADK / Fold change vs veh, ADK / RFU, RASSF2 / Fold change vs veh, RASSF2 / RFU, WIPF1 / Fold change vs veh, WIPF1 / RFU, LARP1B / Fold change vs veh, LARP1B / RFU, RASA1 / Fold change vs veh, RASA1 / RFU, RB1 / Fold change vs veh, RB1 / RFU, PPFIA1 / Fold change vs veh, PPFIA1 / RFU, MAT2A / Fold change vs veh, MAT2A / RFU, CCT5 / Fold change vs veh, CCT5 / RFU, WDR92 / Fold change vs veh, WDR92 / RFU, CUX1 / Fold change vs veh, CUX1 / RFU, TTC7A / Fold change vs veh, TTC7A / RFU, TMEM135 / Fold change vs veh, TMEM135 / RFU, DEPTOR / Fold change vs veh, DEPTOR / RFU, CPM / Fold change vs veh, CPM / RFU, DNAJB6 / Fold change vs veh, DNAJB6 / RFU, CACNA2D3 / Fold change vs veh, CACNA2D3 / RFU, DTX4 / Fold change vs veh, DTX4 / RFU, TFCP2 / Fold change vs veh, TFCP2 / RFU, GMCL1 /// GMCL1P1 / Fold change vs veh, GMCL1 /// GMCL1P1 / RFU, AEBP2 / Fold change vs veh, AEBP2 / RFU, SNHG1 /// SNORD22 /// SNORD25 /// SNORD26 /// SNORD27 /// SNORD28 /// SNORD29 /// SNORD31 / Fold change vs veh, SNHG1 /// SNORD22 /// SNORD25 /// SNORD26 /// SNORD27 /// SNORD28 /// SNORD29 /// SNORD31 / Fold change (Aza/veh), C12orf56 (ProbeSet 11735607_a_at) / Fold change (ACY-1035/veh), C12orf56 (ProbeSet 11735607_a_at) / Fold change (Aza/veh), FGFR1OP (ProbeSet 11751329_s_at) / Fold change (ACY-1035/veh), FGFR1OP (ProbeSet 11751329_s_at) / Fold change (Aza/veh), VPS36 (ProbeSet 11739960_a_at) / Fold change (ACY-1035/veh), VPS36 (ProbeSet 11739960_a_at) / RFU SYPL1 (11715823_x_at) / Fold change /veh SYPL1 (11715823_x_at) / RFU IGFBP7 (11715501_s_at) / Fold change /veh IGFBP7 (11715501_s_at) / RFU REEP3 (11722064_at) / Fold change /veh REEP3 (11722064_at) / RFU IGLL1 (11728026_x_at) / Fold change /veh IGLL1 (11728026_x_at): dose or concentration left out as unconfirmed
Details: MV-4-11 cells, 48 hours

Q: Which “Fold change /veh C1QL1 (11718748_at)” value does the source give for `Nc1ncn([C@@H]2O[C@H](CO)[C@@H](O)[C@H]2O)c(=O)n1` [azacitidine] here?
A: The value was 0.93.
